According to US20240247031A1, “COMPOSITION FOR TREATING CANCER CONTAINING TELOMERASE-TARGETING GNRH ANTAGONIST-DERIVED PEPTIDE HS1002” (Research & Business Foundation Sungkyunkwan University, priority 2023, published 2024):

How the values were obtained:
[1] = tested on: AKT, ERK1/2, and mTOR pathways; assay: Western blot of hTERT-regulating signaling proteins in LNCaP (FIG. 13); assay type: cell-based, human; conditions: LNCaP cells
Method: The cells and tumor tissues were homogenized using the PRO-PREP™ extraction solution (iNtRON Biotechnology, Seongnam, Korea). After incubation, the homogenate was centrifuged at 16,000×g for 20 min at 4° C., and the supernatant was collected for western blot analysis. Subsequently, an equivalent quantity of protein was separated using sodium dodecyl sulfate polyacrylamide gels and transferred onto a polyvinylidene difluoride (PVDF) membrane. The PVDF membranes were incubated with the primary antibodies overnight at 4° C., washed with tris-buffered saline, and then incubated with HRP-conjugated anti-mouse or anti-rabbit antibodies. The bands were visualized using a ChemiDoc imaging system (Bio-Rad, Hercules, CA, USA). The band intensities were determined using an Image J software.
Furthermore, a western blot analysis assessed the expression levels of signaling pathway proteins that regulate hTERT in LNCaP cells treated with HS1002. […] In addition, the expression of AKT, ERK1/2, and mTOR was unchanged in both the control and HS1002 groups (FIG. 13).

PC3 = assay: MTT cytotoxicity on various cancer cells (Table 1); assay type: cell-based, human; conditions: prostate cancer cell line PC3; MTT, 48 h
Method: (§1) To evaluate anticancer activities of the produced peptides on various types of cancer cells, MTT analysis was performed. Human prostate cancer cell lines (LNCaP, PC3, and DU145), human breast cancer cell lines (MDA-MB-231 and MCF-7), lung cancer cell line (A549), and ovarian cancer cell line (SKOV3) were cultured in RPMI media supplemented with 1% penicillin/streptomycin and 1% fetal bovine serum (all from Life Technologies, Grand Island, NY). The cells were seeded in 96-well plates containing 100 μL of growth media for 24 h. The media were removed, and then 100 μL of the peptide (solvent DPBS) at each concentration was added to each well and incubated at 37° C. for 48 h. After incubation for 48 h, 100 μL of MTT reagent was added to each well. The cells were incubated at 37° C. for 4 h, and then the supernatant was removed. Formazan crystals were dissolved in 100 μL of DMSO with gentle stirring at 37° C. for 10 min. The absorbance per well was measured at 540 nm using a VERSA max microplate reader (Molecular Devices Corp.).

A549 = assay: MTT cytotoxicity on various cancer cells (Table 1); assay type: cell-based, human; conditions: lung cancer cell line A549; MTT, 48 h
Method: as §1

SKOV3 = assay: MTT cytotoxicity on various cancer cells (Table 1); assay type: cell-based, human; conditions: ovarian cancer cell line SKOV3; MTT, 48 h
Method: as §1

DU145 = assay: MTT cytotoxicity on various cancer cells (Table 1); assay type: cell-based, human; conditions: prostate cancer cell line DU145; MTT, 48 h
Method: as §1

LNCaP = assay: cells; assay type: cell-based, human; conditions: human, 48 h
Method: as §1

MCF-7 = assay: cells; assay type: cell-based, human; conditions: human, 48 h
Method: as §1

telomerase = assay: Telomerase activity quantification qPCR in treated LNCaP cells (FIG. 10, 11); assay type: cell-based, human; conditions: FIG. 11
Method: After treatment with GV1001, HS1001, HS1002, and GnRH, the changes in hTERT mRNA and protein expression level were investigated for each peptide. The drug treatment was performed every 24 h considering the stability of peptides in aqueous solutions. To investigate the telomerase activity reducing effect of the peptides, prostate cancer cell lines (LNCaP) were treated with each drug at 300 μM every 24 h for a total of 72 h and then measured for telomerase activity through qPCR. The proteins in a cell lysate were quantified to obtain a telomerase product extended by the same amount of proteins, and qPCR was performed using the telomerase as a template.
In the treatment with the peptides, the change in telomerase activity was investigated. The cells were cultured in 100-mm plates each, and about 24 h later, the cells were treated with the peptides synthesized in Example 3 at a concentration of 300 μM before incubation. The cells were cultured in a 37° C., 5% CO2 incubator using 1% FBS RPMI media. The cells were harvested 72 h after the peptide treatment and measured for telomerase activity. A telomerase activity quantification qPCT analysis kit (ScienCell, Carlsbad, CA, USA) was used.

HEK293-GnRHR cells = biological target: T1, HEK293-GnRHR cells (Homo sapiens, UniProt P30968); assay: CRE-luciferase reporter assay; assay type: cell-based
T1 construct: GFP; expressed in transfected cells
T1 sequence (P30968 1-328): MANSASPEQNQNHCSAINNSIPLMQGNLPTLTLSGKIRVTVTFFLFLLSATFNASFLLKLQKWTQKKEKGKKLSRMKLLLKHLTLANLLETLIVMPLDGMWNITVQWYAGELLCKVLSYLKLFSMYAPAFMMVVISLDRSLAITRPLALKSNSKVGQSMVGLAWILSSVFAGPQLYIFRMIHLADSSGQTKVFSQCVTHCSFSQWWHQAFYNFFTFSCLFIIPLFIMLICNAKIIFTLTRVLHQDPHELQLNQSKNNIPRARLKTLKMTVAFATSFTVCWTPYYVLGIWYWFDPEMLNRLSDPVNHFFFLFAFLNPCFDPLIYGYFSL
Method: Human embryonic kidney cell line (HEK293), and mouse cancer cell lines (MC38, 4T1) were purchased from the American Type Culture Collection (Manassas, VA, USA). All cell lines were grown in Dulbecco's Modified Essential Medium (DMEM) or Roswell Park Memorial Institute (RPMI) 1640 supplemented with 10% FBS, 100 U/mL penicillin, and 100 μg/mL streptomycin (WelGENE, Daegu, South Korea) in a humidified atmosphere of 5% CO2 at 37° C. To obtain GnRHR-overexpressing HEK293 (HEK293-GnRHR) cells, transfection of the pCMV-AC-GFP-GnRHR vector (HEK293-GnRHR) was performed using Lipofectamine™ 3000 according to the manufacturer's instructions (Cat. 100022052, Thermo Fisher Scientific, Waltham, MA, USA). Colonies of geneticin-resistant cells were selected by adding G418 (800 μg/mL, Sigma) to the culture medium. The HEK293-pCMV-AC-GFP vector (HEK293-Vector) cells were used as a mock-transfection group.
The HEK293-pCMV6-AC-GFP and HEK293-GnRHR cells (4×10^4 cells/well) were grown in 96-well plates and co-transfected with a luciferase reporter plasmid containing a cAMP response element (CRE) using Lipofectamine 3000 (Life Technologies). The transfected cells were exposed to different concentrations of peptide for 24 h, and the promoter activity was measured by a dual-luciferase reporter assay system (BPS Bioscience). The firefly and Renilla luciferase activities were measured using a microplate luminometer (Thermo, Varioskan LUX Multimode Microplate Reader). The calculation of relative luciferase activities involved the normalization of the firefly luciferase activity […].

CCNC(=O)[C@@H]1CCCN1C(=O)[C@@H](NC(=O)[C@H](Cc1ccccc1)NC(=O)[C@H](CCCNC(=N)N)NC(=O)[C@H](CC(C)C)NC(=O)[C@H](CCCNC(=N)N)NC(=O)[C@H](Cc1ccc(O)cc1)NC(=O)[C@H](CO)NC(=O)[C@H](Cc1c[nH]c2ccccc12)NC(=O)[C@H](Cc1c[nH]cn1)NC(=O)[C@@H]1CCC(=O)N1)[C@@H](C)CC [HS1002]
expression of p-AKT [1]: significantly downregulated | expression of p-ERK1/2 [1]: significantly downregulated | expression of p-mTOR [1]: significantly downregulated | expression of AKT, ERK1/2, and mTOR ([1]; total proteins): unchanged | Cytotoxicity (IC50) PC3 (PC3): 7.56 ± 0.61 µg/mL | Cytotoxicity (IC50) A549 (A549): 7.94 ± 0.07 µg/mL | Cytotoxicity (IC50) SKOV3 (SKOV3): 4.91 ± 0.41 µg/mL | Cytotoxicity (IC50) DU145 (DU145): 5.23 ± 0.65 µg/mL | Cytotoxicity (IC50) LNCaP (LNCaP): 6.83 ± 0.72 µg/mL | Cytotoxicity (IC50) MCF-7 (MCF-7): 53.31 ± 1.79 µg/mL | telomerase activity compared with GV1001 (telomerase): better telomerase activity than GV1001 | CRE-luciferase activity compared to the control (HEK293-GnRHR cells; 10 μM): 2 fold | cAMP-mediated promoter binding activity (CRE-luciferase), concentration dependence (HEK293-GnRHR cells; 24 h): concentration-dependently enhanced
